Results as given in ChEMBL document CHEMBL3885881, “DrugMatrix”.

Species: Rattus norvegicus
Assay: DrugMatrix - Regimen: Daily Repeat
Assay type: toxicity, organism-based, Sprague-Dawley
Parameters: regimen Daily Repeat, gender Male, age 6-8 weeks
Settings: in vivo, po, route oral GAVAGE, […]; for ABSOLUTE BASOPHIL / ABSOLUTE EOSINOPHIL / ABSOLUTE LYMPHOCYTE / ABSOLUTE MONOCYTE / ABSOLUTE SEGMENTED NEUTROPHIL / BASOPHIL / EOSINOPHIL / ERYTHROCYTE COUNT / HEMATOCRIT / HEMOGLOBIN / LEUKOCYTE COUNT / LYMPHOCYTE / MEAN CORPUSCULAR HEMOGLOBIN / MEAN CORPUSCULAR HEMOGLOBIN CONCENTRATION / MEAN CORPUSCULAR VOLUME / MONOCYTE / NEUTROPHIL / NUCLEATED RED BLOOD CELLS / PLATELET COUNT: tissue Blood; for ALANINE AMINOTRANSFERASE / ALBUMIN / ALKALINE PHOSPHATASE / ASPARTATE AMINOTRANSFERASE / BLOOD UREA NITROGEN / CARBON DIOXIDE / CHLORIDE / CHOLESTEROL / CREATINE PHOSPHOKINASE / CREATININE / GLUCOSE / LACTATE DEHYDROGENASE / LIPASE / PHOSPHORUS / POTASSIUM / SODIUM / TOTAL BILIRUBIN / TOTAL PROTEIN / URIC ACID: tissue Plasma
[1] = 0 mg/kg, 72 h, dose level Control, time 3 day
[2] = 0 mg/kg, 120 h, dose level Control, time 5 day
[3] = 11 mg/kg, 72 h, dose level High, time 3 day

In the case of `C[C@H]1O[C@@H](O[C@H]2[C@@H](O)C[C@H](O[C@H]3[C@@H](O)C[C@H](O[C@H]4CC[C@@]5(C)[C@H](CC[C@@H]6[C@@H]5C[C@@H](O)[C@]5(C)[C@@H](C7=CC(=O)OC7)CC[C@]65O)C4)O[C@@H]3C)O[C@@H]2C)C[C@H](O)[C@@H]1O` [DIGOXIN], the “ABSOLUTE BASOPHIL” value [1] is reported as 0 CELLS/uL, the “ABSOLUTE EOSINOPHIL” value [1] is reported as 0 CELLS/uL and the “ABSOLUTE LYMPHOCYTE” value [1] is reported as 8493 CELLS/uL. For the same compound, the “ABSOLUTE MONOCYTE” value [1] was 127 CELLS/uL, the “ABSOLUTE SEGMENTED NEUTROPHIL” value [1] was 896.67 CELLS/uL and the BASOPHIL [1] was 0%. The EOSINOPHIL [1] was 0%, the “ERYTHROCYTE COUNT” value [1] was 5.53 x10E6/uL and the HEMATOCRIT [1] was 34.07%. The HEMOGLOBIN [1] was 13.28 G/DL, the “LEUKOCYTE COUNT” value [1] was 9.52 x10E3/uL and the LYMPHOCYTE [1] was 89.17%. For the same compound, the “MEAN CORPUSCULAR HEMOGLOBIN” value [1] was 24.07 pg, the “MEAN CORPUSCULAR HEMOGLOBIN CONCENTRATION” value [1] was 39.03 G/DL and the “MEAN CORPUSCULAR VOLUME” value [1] was 61.62 fL. The MONOCYTE [1] was 1.33%, the NEUTROPHIL [1] was 9.5% and the “NUCLEATED RED BLOOD CELLS” value [1] was 0.17 /100WBC. For the same compound, the “PLATELET COUNT” value [1] was 1054.17 x10E3/uL, the “ALANINE AMINOTRANSFERASE” value [1] was 77.67 u/L and the ALBUMIN [1] was 4.08 G/DL. The “ALKALINE PHOSPHATASE” value [1] was 404.5 u/L, the “ASPARTATE AMINOTRANSFERASE” value [1] was 83.17 u/L and the “BLOOD UREA NITROGEN” value [1] was 14.33 mg/dL. The “CARBON DIOXIDE” value [1] was 33.17 mmol/L, the CHLORIDE [1] was 101 MEQ/L and the CHOLESTEROL [1] was 76.33 mg/dL. The “CREATINE PHOSPHOKINASE” value [1] was 184.5 u/L, the CREATININE [1] was 0.13 mg/dL and the GLUCOSE [1] was 163.67 mg/dL. For the same compound, the “LACTATE DEHYDROGENASE” value [1] was 130.33 u/L, the LIPASE [1] was 11 u/L and the PHOSPHORUS [1] was 9.27 mg/dL. For the same compound, the POTASSIUM [1] was 6.26 MEQ/L, the SODIUM [1] was 143.57 MEQ/L and the “TOTAL BILIRUBIN” value [1] was 0.18 mg/dL. For the same compound, the “TOTAL PROTEIN” value [1] was 5.82 G/DL, the “URIC ACID” value [1] was 1.38 mg/dL and the “ABSOLUTE BASOPHIL” value [2] was 0 CELLS/uL. The “ABSOLUTE EOSINOPHIL” value [2] was 0 CELLS/uL, the “ABSOLUTE LYMPHOCYTE” value [2] was 8546.17 CELLS/uL and the “ABSOLUTE MONOCYTE” value [2] was 49.5 CELLS/uL. For the same compound, the “ABSOLUTE SEGMENTED NEUTROPHIL” value [2] was 554.33 CELLS/uL, the BASOPHIL [2] was 0% and the EOSINOPHIL [2] was 0%. For the same compound, the “ERYTHROCYTE COUNT” value [2] was 5.36 x10E6/uL, the HEMATOCRIT [2] was 33.38% and the HEMOGLOBIN [2] was 13.2 G/DL. The “LEUKOCYTE COUNT” value [2] was 9.15 x10E3/uL, the LYMPHOCYTE [2] was 93.17% and the “MEAN CORPUSCULAR HEMOGLOBIN” value [2] was 24.68 pg. The “MEAN CORPUSCULAR HEMOGLOBIN CONCENTRATION” value [2] was 39.58 G/DL, the “MEAN CORPUSCULAR VOLUME” value [2] was 62.38 fL and the MONOCYTE [2] was 0.5%. For the same compound, the NEUTROPHIL [2] was 6.33%, the “NUCLEATED RED BLOOD CELLS” value [2] was 0.17 /100WBC and the “PLATELET COUNT” value [2] was 1099.33 x10E3/uL. For the same compound, the “ALANINE AMINOTRANSFERASE” value [2] was 62.33 u/L, the ALBUMIN [2] was 4.1 G/DL and the “ALKALINE PHOSPHATASE” value [2] was 419 u/L. The “ASPARTATE AMINOTRANSFERASE” value [2] was 83.17 u/L, the “BLOOD UREA NITROGEN” value [2] was 15.5 mg/dL and the “CARBON DIOXIDE” value [2] was 33.17 mmol/L. For the same compound, the CHLORIDE [2] was 98 MEQ/L, the CHOLESTEROL [2] was 58.33 mg/dL and the “CREATINE PHOSPHOKINASE” value [2] was 393.17 u/L. The CREATININE [2] was 0.18 mg/dL, the GLUCOSE [2] was 163 mg/dL and the “LACTATE DEHYDROGENASE” value [2] was 111.5 u/L. It also gave an LIPASE [2] of 9.5 u/L, a PHOSPHORUS [2] of 10.02 mg/dL and a POTASSIUM [2] of 5.73 MEQ/L. The SODIUM [2] was 143.65 MEQ/L, the “TOTAL BILIRUBIN” value [2] was 0.2 mg/dL and the “TOTAL PROTEIN” value [2] was 5.85 G/DL. The “URIC ACID” value [2] was 0.78 mg/dL, the “ABSOLUTE BASOPHIL” value [3] was 0 CELLS/uL and the “ABSOLUTE EOSINOPHIL” value [3] was 0 CELLS/uL. For the same compound, the “ABSOLUTE LYMPHOCYTE” value [3] was 7683.67 CELLS/uL, the “ABSOLUTE MONOCYTE” value [3] was 95.67 CELLS/uL and the “ABSOLUTE SEGMENTED NEUTROPHIL” value [3] was 254 CELLS/uL. The BASOPHIL [3] was 0%, the EOSINOPHIL [3] was 0% and the “ERYTHROCYTE COUNT” value [3] was 6.46 x10E6/uL. For the same compound, the HEMATOCRIT [3] was 39.07%, the HEMOGLOBIN [3] was 14.83 G/DL and the “LEUKOCYTE COUNT” value [3] was 8.03 x10E3/uL. The LYMPHOCYTE [3] was 95.67%, the “MEAN CORPUSCULAR HEMOGLOBIN” value [3] was 22.9 pg and the “MEAN CORPUSCULAR HEMOGLOBIN CONCENTRATION” value [3] was 37.9 G/DL. For the same compound, the “MEAN CORPUSCULAR VOLUME” value [3] was 60.4 fL, the MONOCYTE [3] was 1% and the NEUTROPHIL [3] was 3.33%. For the same compound, the “NUCLEATED RED BLOOD CELLS” value [3] was 0 /100WBC, the “PLATELET COUNT” value [3] was 1036 x10E3/uL and the “ALANINE AMINOTRANSFERASE” value [3] was 99.67 u/L. The ALBUMIN [3] was 4.37 G/DL, the “ALKALINE PHOSPHATASE” value [3] was 416 u/L and the “ASPARTATE AMINOTRANSFERASE” value [3] was 100.33 u/L. The “BLOOD UREA NITROGEN” value [3] was 11.67 mg/dL, the “CARBON DIOXIDE” value [3] was 33 mmol/L and the CHLORIDE [3] was 100 MEQ/L. The CHOLESTEROL [3] was 90.67 mg/dL, the “CREATINE PHOSPHOKINASE” value [3] was 245.33 u/L and the CREATININE [3] was 0.1 mg/dL. The GLUCOSE [3] was 142.33 mg/dL, the “LACTATE DEHYDROGENASE” value [3] was 125.67 u/L and the LIPASE [3] was 10.33 u/L. For the same compound, the PHOSPHORUS [3] was 8.27 mg/dL, the POTASSIUM [3] was 6.27 MEQ/L and the SODIUM [3] was 143.3 MEQ/L. For the same compound, the “TOTAL BILIRUBIN” value [3] was 0.2 mg/dL, the “TOTAL PROTEIN” value [3] was 6.3 G/DL and the “URIC ACID” value [3] was 1 mg/dL.
